Results reported in Sander's compilation of Henry's law constants (doi:10.1002/etc.5620201008).
Values joined by “and” are separate entries in the source; they are usually repeats but may differ in a detail not shown here. Equal entries are not always repeated.

Assays:
Conditions in all cases: reference: Kochetkov et al. (2001)
[1] = Henry solubility constant Hcp at 301 K (mol/(m3 Pa))
[2] = Henry solubility constant Hcp at 299 K (mol/(m3 Pa))
[3] = Henry solubility constant Hcp at 300 K (mol/(m3 Pa))

Row | SMILES | Henry solubility constant Hcp at 299 K [2] | Henry solubility constant Hcp at 300 K [3] | other results
1 | c1ccccc1 [benzene] | – | – | Henry solubility constant Hcp at 301 K [1]: 0.0021 and 0.0017
2 | C[Si]1(C)O[Si](C)(C)O[Si](C)(C)O[Si](C)(C)O[Si](C)(C)O1 [decamethylcyclopentasiloxane] | 3.4e-05 and 3.1e-05 | – | –
3 | C[Si](C)(C)O[Si](C)(C)O[Si](C)(C)O[Si](C)(C)C [decamethyltetrasiloxane] | – | 5.8e-07 | –

Further lines, with some results ahead:

Row | Henry solubility constant Hcp at 299 K [2] | Henry solubility constant Hcp at 300 K [3] | SMILES | other results
4 | 6.8e-05 and 0.00015 | – | C[Si]1(C)O[Si](C)(C)O[Si](C)(C)O[Si](C)(C)O[Si](C)(C)O[Si](C)(C)O1 [dodecamethylcyclohexasiloxane] | –
5 | – | 0.00017 and 0.00031 | C[Si](C)(C)O[Si](C)(C)C [hexamethyldisiloxane] | –
6 | – | 3.3e-06 and 2.7e-06 | C[Si](C)(C)O[Si](C)(C)O[Si](C)(C)C [octamethyltrisiloxane] | –
